The results in this text go back to PMC7355430, “Imunofan—RDKVYR Peptide—Stimulates Skin Cell Proliferation and Promotes Tissue Repair” (Molecules, 2020).

One data set is described as follows: Stability in water. In kind it is physicochemical. The note with it: 1 mg/mL in sterile water, 37 °C, 24 h; HPLC Luna C18(2), PDA; 3 independent experiments, n=3 (Figure S1). On the procedure: A stock of IM peptide in sterile water (1 mg/mL) was prepared and divided into 200 µL portions. The sample tubes were stored in an incubator at 37 °C and analysis was performed at various time points (0, 1, 2, 3, 6, and 24 h). The analyses were performed by HPLC using a Luna C18(2) (5 µm, 100 Å 4.6 by 250 mm) column (Phenomenex, Torrance, CA, USA) and monitored by a PDA detector. Then, 0.01% TFA in H2O (A) and 0.01% TFA in 80% ACN in water (B) were used as solvents. A linear gradient of 5–100% B over 60 min and a flow rate of 1 mL/min was applied.
For calculations, peak areas were compared to a calibration curve calculated by LC solution Software (Shimadzu, Kyoto, Japan).

Another data set relates to dendritic cells (DC). Kind of data set: Dendritic cell activation in PBMCs, flow cytometry. Format: cell-based, human. The note with it: 0.1 and 1.0 µg/mL, 48 h, active phenotype CD11+, CD80+, CD83+. How it is done: Immunological tests were conducted on human peripheral blood mononuclear cells, isolated from “buffy coats” using a ficoll density gradient (Histopaque, Sigma-Aldrich, St. Louis, MO, USA). Buffy coats for were obtained from blood of healthy anonymous donors of the Regional Center of Blood Donation and Blood Therapy in Gdansk, Poland. After washing in PBS, erythrocyte lysis, and cell counting (cell counter, Bio-Rad), the PBMCs were seeded onto a 24-well culture plate at a density of 10^6 cells/1 mL of RPMI 1640 (Penicillin/Streptomycin, 10% FBS) per well. After cell resting for 24 h, cells were stimulated with IM peptide (0.1 µg/mL and 1.0 µg/mL) for the next 48 h under appropriate conditions (37 °C, 5% CO2). The untreated cells were used as a negative control, whereas cells stimulated with LPS (1 µg/mL) and PHA (2.5 µg/mL) were a positive control. After incubation, the PBMCs were collected, washed with PBS, counted and prepared for flow cytometry analysis. 10^4 cells/100 µl were stained with monoclonal, fluorochrome-conjugated antibodies (anti-CD3, -CD4, -CD8, -CD16, -CD56, -CD25, -CD69, -CD71, -HLA-DR, -CD11c, -CD80, and -CD83) and incubated for 30 min in RT in the dark. Stained cells were analyzed using a flow cytometer (LSRFortessa, BD, USA). All data are presented as percentages due to the application of hospital diagnostic laboratory standards for immune cells analyses.
On the technique in general: In flow cytometry, cells or beads pass a laser one at a time.

Peptide text beside a SMILES is read from it.

In the case of `CC(C)[C@H](NC(=O)[C@H](CCCCN)NC(=O)[C@H](CC(=O)O)NC(=O)[C@@H](N)CCCNC(=N)N)C(=O)N[C@@H](Cc1ccc(O)cc1)C(=O)N[C@@H](CCCNC(=N)N)C(=O)O` [IM, H-Arg-Asp-Lys-Val-Tyr-Arg-OH] (H-RDKVYR-OH), the “signal from the IM peptide after incubation in water” value in the data set “Stability in water” is given as “no reduction of the signal”. Further, in the data set on dendritic cells (DC), the “activation of dendritic cells” value is “not activated”.
